Measured values: paper PMC3692431, “Anticonvulsant Activity of B2, an Adenosine Analog, on Chemical Convulsant-Induced Seizures” (PLoS ONE, 2013)
Where two headings read alike, the source gives them in different places.

Legend:
[1] = test system: c-Fos expression in the hippocampus; assay: PTZ-induced c-Fos expression, western blot; assay type: in vivo, mice; conditions: B2 5 mg/kg + PTZ 85 mg/kg, 2 h, PTZ alone 8 times
Method: Mice were injected with either B2 (5 mg/kg) or vehicle 20 min before administration of PTZ (85 mg/kg). Two hours later, mice were either anesthetized for c-Fos analysis using immunohistochemistry or decapitated or western blotting.
Mice were decapitated and the hippocampus was quickly dissected on ice. The hippocampus was then homogenized in 20 volumes of cell lysis buffer. The homogenates were incubated on ice for 15 min and centrifuged at 12000×g for 5 min at 4°C. The supernatant containing the crude nuclear extract was collected and the protein content estimated using a Bradford assay. Protein samples […] were electrophoresed in 10% SDS-PAGE at 150 V for 3 h. The samples were then electroblotted onto nitrocellulose membranes at 20 V. The membranes were blocked using 5% dry non-fat milk in 0.1% TBST solution, and incubated overnight on a shaker with anti-c-Fos rabbit antibody (SC-52g) diluted 1∶800 (Santa Cruz Biotechnology). On the following day, the blots were washed using 0.1% TBST solution and incubated for 2 h with anti-rabbit peroxidase-conjugated secondary antibody. The blots were then washed using 0.1% TBST solution. After adding super ECL plus solution, the protein bands were detected using ECL (Fuji Digital Science), as described by the manufacturer. The optical density of the intensity of the bands was measured using Gel Pro Analyzer (version 4.0).

[2] = test system: picrotoxin-induced seizures; assay type: in vivo, mice; conditions: picrotoxin 3.5 mg/kg; for mortality rate: control 50%; for latency to seizure onset prolonged by / number of seizures reduced by: vs control
Method: (§1) KA was dissolved in saline and the pH was adjusted to neutrality. The final concentration of KA was 0.7 µg/µl, and the convulsant dose was 1 µl (i.c.v.). […] The selective adenosine receptor antagonist DPCPX or SCH58261 was administered (i.p.) 5 min before administration of B2 or vehicle.
(§2) The latency of seizure onset, number of seizures, and mortality rate was recorded for the picrotoxin-injected mice. For the PTZ-injected mice, we recorded the latency of seizure onset, number of seizures, and presence of clonic seizures.

PTZ-induced seizures [3] = assay: PTZ-induced seizures with adenosine receptor antagonist pretreatment; assay type: in vivo, mice; conditions: B2 5 mg/kg; PTZ 85 mg/kg; P<0.05
Method: as §1
Twenty min later, mice were admdinistered with PTZ (85 mg/kg).

PTZ-induced seizures [4] = assay: PTZ-induced seizures in mice; assay type: in vivo; conditions: PTZ 85 mg/kg s.c.; for seizure occurrence: all control mice seized; for latency to seizure onset prolonged by / number of seizures reduced by: vs control
Method: as §2

[5] = test system: rat adenosine A2A receptors; design: method as in PMID 22242450; conditions: cited from earlier work
[6] = test system: strychnine-induced seizures; assay: Strychnine-induced seizures in mice; assay type: in vivo; conditions: strychnine 1.5 mg/kg i.p.; for mortality rate: control 88%; for latency to seizure onset prolonged by: vs control
Method: as §1
(§3) Mice were injected with B2 (1.25, 5, 20 mg/kg), carbamazepine (80 mg/kg) or vehicle 20 min before administration of strychnine (1.5 mg/kg) or 4-AP (13 mg/kg). […] The time of latency to seizure onset and mortality rate were recorded.

[7] = target: T1, recombinant human adenosine A1 receptor (Homo sapiens, UniProt P30542); assay: cAMP accumulation assay in CHO cells expressing A1 receptor; assay type: cell-based; conditions: CHO cells stably expressing human A1 receptor; forskolin-stimulated cAMP; read-out: EC50, decrease of cellular cAMP level
T1 construct: expressed in transfected cells; host or cells: CHO cells (provided by Professor R. B. Su)
T1 sequence (P30542 1-326): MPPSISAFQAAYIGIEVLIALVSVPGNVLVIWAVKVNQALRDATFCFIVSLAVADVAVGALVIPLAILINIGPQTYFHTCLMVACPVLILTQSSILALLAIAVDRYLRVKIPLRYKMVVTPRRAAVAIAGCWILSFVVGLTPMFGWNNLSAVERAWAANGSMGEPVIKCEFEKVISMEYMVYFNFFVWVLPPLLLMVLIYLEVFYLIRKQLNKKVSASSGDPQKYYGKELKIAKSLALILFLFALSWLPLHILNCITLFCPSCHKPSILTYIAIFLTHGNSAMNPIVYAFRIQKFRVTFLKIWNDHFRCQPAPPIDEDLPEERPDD
Method: Chinese hamster ovary (CHO) cells expressing recombinant human A1/A2A receptors (provided by Professor R. B. Su of the Institute of Pharmacology and Toxicology, Academy of Military Medical Sciences, Beijing, China) were cultured in Dulbecco’s Modified Eagles Medium with the F12 nutrient mixture (DMEM/F12) containing no nucleosides, and with 10% fetal calf serum, penicillin (100 U/ml), streptomycin (100 µg/ml), L-glutamine (2 mM), and Geneticin at 37°C in a 5% CO2/95% atmosphere. The cells used to determine cAMP levels had viability >95%, as assessed by trypan blue exclusion.
Intracellular cyclic adenosine monophosphate (cAMP) levels were measured using a competitive protein binding method. To measure A1/A2A receptor-mediated accumulation of cAMP, cells were grown as confluent monolayers in 24-well cluster dishes. The cells were washed twice with 2 mL of medium containing 20 mM HEPES that had been prewarmed to 37°C, pH 7.4. The cells were then preincubated for 15 min in 0.4 mL fresh medium containing 30 µM of the cAMP phosphodiesterase inhibitor rolipram. B2 was added in 0.1 mL of medium and incubations continued for 15 min. The reaction was then terminated by removing the supernatant, and cells were lysed with the addition of 500 µl of 0.1 M ice-cold HCl. The cell lysate was centrifuged (4,000×g) at 4°C for 10 min. […] Bound radioactivity was measured by liquid scintillation spectrometry.

4-AP-induced seizures = 4-AP-induced seizures in mice; assay type: in vivo; conditions: 4-AP 13 mg/kg; for latency of seizure onset prolonged by: vs control
Method: as §1, §3

## COc1cc(CNc2ncnc3c2ncn3[C@@H]2O[C@H](CO)[C@@H](O)[C@H]2O)ccc1O [B2, N^6-(3-methoxyl-4-hydroxybenzyl) adenine riboside]
[1]
  c-Fos expression in the hippocampus, times larger than vehicle control group: 1.5 times
[2]; B2 1.25 mg/kg i.p.
  mortality rate: 25%
  latency to seizure onset prolonged by: 64%
  number of seizures reduced by: 18%
[2]; B2 5 mg/kg i.p.
  mortality rate: 13%
  latency to seizure onset prolonged by: 242%
  number of seizures reduced by: 64%
[2]; B2 20 mg/kg i.p.
  mortality rate: 25%
  latency to seizure onset prolonged by: 183%
  number of seizures reduced by: 53%
PTZ-induced seizures [3]
  effect on latency to seizure onset: significantly prolonged
PTZ-induced seizures [4]; B2 1.25 mg/kg i.p.
  seizure occurrence: 70%
  latency to seizure onset prolonged by: 43%
  number of seizures reduced by: 39%
PTZ-induced seizures [4]; B2 5 mg/kg i.p.
  seizure occurrence: 30%
  latency to seizure onset prolonged by: 89%
  number of seizures reduced by: 70%
PTZ-induced seizures [4]; B2 20 mg/kg i.p.
  seizure occurrence: 50%
  latency to seizure onset prolonged by: 93%
  number of seizures reduced by: 62%
[5]
  affinity for rat adenosine A2A receptors: moderate affinity
[6]; B2 1.25 mg/kg i.p.
  mortality rate: 71%
  latency to seizure onset prolonged by: 45%
[6]; B2 5 mg/kg i.p.
  mortality rate: 43%
  latency to seizure onset prolonged by: 88%
[6]; B2 20 mg/kg i.p.
  mortality rate: 57%
  latency to seizure onset prolonged by: 89%
[7]
  EC50: 180 nM
4-AP-induced seizures; B2 1.25 mg/kg i.p.
  latency of seizure onset prolonged by: 25%
4-AP-induced seizures; B2 5 mg/kg i.p.
  latency of seizure onset prolonged by: 135%
4-AP-induced seizures; B2 20 mg/kg i.p.
  latency of seizure onset prolonged by: 96%
4-AP-induced seizures; B2 1.25, 5, 20 mg/kg i.p., control 100%
  effect on mortality rate: did not have a significant effect
